Reference: patent publication US20100261719A1, “CHEMICAL COMPOUNDS” (priority 2007, published 2010)
Converted amounts (≈) assume the structure as drawn.

How the values were obtained:
Sau516 = experiment: Bacterial susceptibility testing (MIC), Sau516; format: cell-based; conditions: Staphylococcus aureus, liquid media, 37° C., 24 hours, lowest concentration reducing growth by 80% or more
Source text: (§1) Compounds may be tested for antimicrobial activity by susceptibility testing in liquid media in a 96 well format. Compounds may be dissolved in dimethylsulfoxide and tested in 10 doubling dilutions in the susceptibility assays. The organisms used in the assay may be grown overnight on suitable agar media and then suspended in a liquid medium appropriate for the growth of the organism. The suspension may be a 0.5 McFarland and a further 1 in 10 dilution may be advantageously made into the same liquid medium to prepare the final organism suspension in 100 μL. Plates may be incubated under appropriate conditions at 37° C. for 24 hours prior to reading. The Minimum Inhibitory Concentration (MIC) is intended to refer to the lowest drug concentration able to reduce growth by 80% or more.
(§2) Compounds may be evaluated against organisms such as Gram-positive species, including Staphylococcus aureus, Streptococcus pneumoniae, and Streptococcus pyogenes; and Gram-negative species including Haemophilus influenzae, and Moraxella catarrhalis.

[1] = molecular target: Escherichia coli DNA gyrase A/B tetramer (Escherichia coli, UniProt P0AES4+P0AES6); experiment: DNA gyrase supercoiling activity fluorescence polarisation assay; format: biochemical
How it was run: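 5 nM gyrase supercoils 130 μg/ml relaxed triplex-sequence plasmid with 0.3 mM ATP in Tris pH 7.5/KCl/MgCl2/spermidine buffer, 0.8% DMSO, ~30 min at ambient temperature, 5-10 compound concentrations. Quenched with 40 nM BODIPY-FL triplex probe at pH 3.5; anisotropy read after 60 min (485/535 nm). IC50 by nonlinear regression against no-compound and 5 uM ciprofloxacin controls.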

Hin158 = experiment: Bacterial susceptibility testing (MIC), Hin158; format: cell-based; conditions: Haemophilus influenzae, liquid media, 37° C., 24 hours, lowest concentration reducing growth by 80% or more
Source text: as §1, §2

Hin737 = experiment: Bacterial susceptibility testing (MIC), Hin737; format: cell-based; conditions: Haemophilus influenzae, liquid media, 37° C., 24 hours, lowest concentration reducing growth by 80% or more
Source text: as §1, §2

Spn548 = experiment: Bacterial susceptibility testing (MIC), Spn548; format: cell-based; conditions: Streptococcus pneumoniae, liquid media, 37° C., 24 hours, lowest concentration reducing growth by 80% or more
Source text: as §1, §2

Sau517 = experiment: Bacterial susceptibility testing (MIC), Sau517; format: cell-based; conditions: Staphylococcus aureus, liquid media, 37° C., 24 hours, lowest concentration reducing growth by 80% or more
Source text: as §1, §2

Spy838 = experiment: Bacterial susceptibility testing (MIC), Spy838; format: cell-based; conditions: Streptococcus pyogenes, liquid media, 37° C., 24 hours, lowest concentration reducing growth by 80% or more
Source text: as §1, §2

Hin446 = experiment: Bacterial susceptibility testing (MIC), Hin446; format: cell-based; conditions: Haemophilus influenzae, liquid media, 37° C., 24 hours, lowest concentration reducing growth by 80% or more
Source text: as §1, §2

Spn538 = experiment: Bacterial susceptibility testing (MIC), Spn538; format: cell-based; conditions: Streptococcus pneumoniae, liquid media, 37° C., 24 hours, lowest concentration reducing growth by 80% or more
Source text: as §1, §2

Mca445 = experiment: Bacterial susceptibility testing (MIC), Mca445; format: cell-based; conditions: Moraxella catarrhalis, liquid media, 37° C., 24 hours, lowest concentration reducing growth by 80% or more
Source text: as §1, §2

Escherichia coli DNA gyrase A/B tetramer, sequence (P0AES4 whole entry, one chain of several): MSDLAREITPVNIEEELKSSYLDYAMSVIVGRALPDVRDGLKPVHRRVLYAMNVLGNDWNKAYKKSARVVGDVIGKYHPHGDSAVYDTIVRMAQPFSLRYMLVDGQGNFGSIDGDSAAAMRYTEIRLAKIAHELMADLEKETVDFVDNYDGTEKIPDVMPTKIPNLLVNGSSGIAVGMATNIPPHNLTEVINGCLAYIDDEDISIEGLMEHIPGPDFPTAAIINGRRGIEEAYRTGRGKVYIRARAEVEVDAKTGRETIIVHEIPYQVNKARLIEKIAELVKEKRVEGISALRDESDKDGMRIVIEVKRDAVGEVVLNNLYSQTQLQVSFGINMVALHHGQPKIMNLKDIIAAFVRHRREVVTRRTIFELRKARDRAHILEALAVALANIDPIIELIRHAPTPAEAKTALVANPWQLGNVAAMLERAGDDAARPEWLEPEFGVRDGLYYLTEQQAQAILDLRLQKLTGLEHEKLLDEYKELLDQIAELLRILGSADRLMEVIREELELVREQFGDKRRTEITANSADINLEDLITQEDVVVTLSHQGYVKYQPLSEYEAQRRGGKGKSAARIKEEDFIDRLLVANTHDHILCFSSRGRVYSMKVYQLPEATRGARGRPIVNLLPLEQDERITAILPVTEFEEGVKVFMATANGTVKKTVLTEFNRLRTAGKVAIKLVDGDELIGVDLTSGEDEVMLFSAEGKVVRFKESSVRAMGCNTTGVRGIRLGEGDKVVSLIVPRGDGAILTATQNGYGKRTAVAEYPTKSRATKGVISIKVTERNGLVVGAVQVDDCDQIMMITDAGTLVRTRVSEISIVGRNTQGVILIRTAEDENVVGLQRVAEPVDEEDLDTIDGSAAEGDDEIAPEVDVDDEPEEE

Row | Structure (SMILES) | IC50 [1] [µM] | also measured
1 | C[C@@H]1CN2c3ccc(C#C[Si](C)(C)C)cc3CC3(C(=O)NC(=O)NC3=O)[C@H]2[C@H](C)O1 (racemic) [Example 1, (2R,4S,4aS)-rel-2,4-Dimethyl-8-((trimethylsilypethynyl)-2,4,4a,6-tetrahydro-1H,1′H-spiro[[1,4]oxazino[4,3-a]quinoline-5,5′-pyrimidine]-2′,4′,6′(3′H)-trion] | 7.57 | MIC (Sau516): 8 µg/mL (≈ 18.8 µM); MIC (Hin158): 0.13 µg/mL (≈ 0.305 µM); MIC (Hin737): 16 µg/mL (≈ 37.6 µM); MIC (Spn548): 16 µg/mL (≈ 37.6 µM); MIC (Sau517): 8 µg/mL (≈ 18.8 µM); MIC (Spy838): 16 µg/mL (≈ 37.6 µM); MIC (Hin446): 4 µg/mL (≈ 9.4 µM); MIC (Spn538): 32 µg/mL (≈ 75.2 µM); MIC (Mca445): 2 µg/mL (≈ 4.7 µM)
2 | COCC(=O)N/N=C(\C)c1cc2c(c(F)c1F)N1C[C@@H](C)O[C@@H](C)[C@@H]1C1(C2)C(=O)NC(=O)NC1=O (relative stereo) [Example 55, N′-{(1E)-1-[(2R,4S,4aS)-rel-9,10-Difluoro-2,4-dimethyl-2′,4′,6′-trioxo-1,1′,2,3′,4,4′,4a,6′-octahydro-2′H,6H-spiro[1,4-oxazino[4,3-a]quinoline-5,5′-pyrimidin]-8-yl]ethylidene}-2-methoxyacetohydrazide] | 7.59 | 
3 | C[C@@H]1CN2c3c(cc(/C=N/N4CCCC4)c(F)c3F)CC3(C(=O)NC(=O)NC3=O)[C@H]2[C@H](C)O1 (relative stereo) [Example 21, (2R,4S,4 aS)-rel-9,10-Difluoro-2,4-dimethyl-8-[(E)-(pyrrolidin-1-ylimino)methyl]-1,2,4,4a-tetrahydro-2′H,6H-spiro[1,4-oxazino[4,3-a]quinoline-5,5′-pyrimidine]-2′,4′,6′(1′H,3′H)-trione] | 2.25 | 
4 | C/C(=N\N1CC(=O)NC1=O)c1cc2c(c(F)c1F)N1C[C@@H](C)O[C@@H](C)[C@@H]1C1(C2)C(=O)NC(=O)NC1=O (relative stereo) [Example 52, (2R,4S,4aS)-rel-8-[(1E)-N-(2,4-Dioxoimidazolidin-1-yl)ethanimidoyl]-9,10-difluoro-2,4-dimethyl-1,2,4,4a-tetrahydro-2′H,6H-spiro[1,4-oxazino[4,3-a]quinoline-5,5′-pyrimidine]-2′,4′,6′(1′H,3′H)-trione] | 12.8 | 
5 | C[C@@H]1CN2c3cc(F)c(C#Cc4cc5ccccc5s4)cc3CC3(C(=O)NC(=O)NC3=O)[C@H]2[C@H](C)O1 (racemic) [Example 29, (2R,4S,4aS)-rel-8-(1-Benzothiophen-2-ylethynyl)-9-fluoro-2,4-dimethyl-1,2,4,4a-tetrahydro-2′H,6H-spiro[1,4-oxazino[4,3-a]quinoline-5,5′-pyrimidine]-2′,4′,6′(1′H,3′H)-trione] | 20 | 
6 | C[C@H]1CN2c3c(cc(C#Cc4nccs4)c(F)c3F)CC3(C(=O)NC(=O)NC3=O)[C@@H]2[C@@H](C)O1 (relative stereo) [Example 8, (2S,4R,4aR)-rel-9,10-Difluoro-2,4-dimethyl-8-(1,3-thiazol-2-ylethynyl)-1,2,4,4a-tetrahydro-2′H,6H-spiro[1,4-oxazino[4,3-a]quinoline-5,5′-pyrimidine]-2′,4′,6′(1′H,3′H)-trione] | 1.29 | 
7 | CNC(=O)Nc1ccc2c(c1)CC1(C(=O)NC(=O)NC1=O)[C@H]1[C@H](C)O[C@H](C)CN21 (relative stereo) [Example 78, 1-[(2R,4S,4aS)-rel-2,4-Dimethyl-2′,4′,6′-trioxo-1,1′,2,3′,4,4′,4a,6′-octahydro-2′H,6H-spiro[1,4-oxazino[4,3-a]quinoline-5,5′-pyrimidin]-8-yl]-3-methylurea] | 8.65 | 
8 | C[C@@H]1CN2c3cc(F)c(C#Cc4nc5ccccc5s4)cc3CC3(C(=O)NC(=O)NC3=O)[C@H]2[C@H](C)O1 (relative stereo) [Example 34, (2R,4S,4aS)-rel-8-(1,3-Benzothiazol-2-ylethynyl)-9-fluoro-2,4-dimethyl-1,2,4,4a-tetrahydro-2′H,6H-spiro[1,4-oxazino[4,3-a]quinoline-5,5′-pyrimidine]-2′,4′,6′(1′H,3′H)-trione] | 2.95 | 
9 | C[C@@H]1CN2c3ccc(C#Cc4ccncc4)cc3CC3(C(=O)NC(=O)NC3=O)[C@H]2[C@H](C)O1 (relative stereo) [Example 3, (2R,4S,4aS)-rel-2,4-Dimethyl-8-(pyridin-4-ylethynyl)-1,2,4,4a-tetrahydro-2′H,6H-spiro[1,4-oxazino[4,3-a]quinoline-5,5′-pyrimidine]-2′,4′,6′(1′H,3′H)-trione] | 2.48 | 
10 | C[C@@H]1CN2c3cc(F)c(C#Cc4cnccn4)cc3CC3(C(=O)NC(=O)NC3=O)[C@H]2[C@H](C)O1 (relative stereo) [Example 31, (2R,4S,4aS)-rel-9-Fluoro-2,4-dimethyl-8-(pyrazin-2-ylethynyl)-1,2,4,4a-tetrahydro-2′H,6H-spiro[1,4-oxazino[4,3-a]quinoline-5,5′-pyrimidine]-2′,4′,6′(1′H,3′H)-trione] | 0.98 | 
11 | CCNC(=O)Nc1ccc2c(c1)CC1(C(=O)NC(=O)NC1=O)[C@H]1[C@H](C)O[C@H](C)CN21 (relative stereo) [Example 72, 1-[(2R,4S,4aS)-rel-2,4-Dimethyl-2′,4′,6′-trioxo-1,1′,2,3′,4,4′,4a,6′-octahydro-2′H,6H-spiro[1,4-oxazino[4,3-a]quinoline-5,5′-pyrimidin]-8-yl]-3-ethylurea] | 10.4 | 
